Key:
Assay in all cases: relative viability (nuclei count vs DMSO), 5 days (fraction); higher = more cells survive
IU1-47 + Decitabine = compound: CC1=CC(=C(N1C2=CC=C(C=C2)Cl)C)C(=O)CN3CCCCC3 [IU1-47] + Nc1ncn([C@H]2C[C@H](O)[C@@H](CO)O2)c(=O)n1 [Decitabine] (partner 2 µM)
Outline: (§1)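 Each reported value is a median over duplicate plates. It expresses relative viability: treated-well nuclei count divided by vehicle-well nuclei count. Lung cancer cell lines in 1536-well plates were dosed by pin tool a day after seeding, alone with one drug or with a fixed anchor-drug dose plus five library-drug doses (not always all listed) in √10 steps, and nuclei were counted after 5 days.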

IU1-47 + Phenformin = compound: CC1=CC(=C(N1C2=CC=C(C=C2)Cl)C)C(=O)CN3CCCCC3 [IU1-47] + N=C(N)NC(=N)NCCc1ccccc1 [Phenformin] (partner 250 µM)
Outline: as §1

FG-4592 + Navitoclax = compound: Cc1nc(C(=O)NCC(=O)O)c(O)c2ccc(Oc3ccccc3)cc12 [FG-4592] + CC1(C)CCC(c2ccc(Cl)cc2)=C(CN2CCN(c3ccc(C(=O)NS(=O)(=O)c4ccc(N[C@H](CCN5CCOCC5)CSc5ccccc5)c(S(=O)(=O)C(F)(F)F)c4)cc3)CC2)C1 [Navitoclax] (partner 0.5 µM)
Outline: as §1

IU1-47 + Trametinib = compound: CC1=CC(=C(N1C2=CC=C(C=C2)Cl)C)C(=O)CN3CCCCC3 [IU1-47] + CC(=O)Nc1cccc(-n2c(=O)n(C3CC3)c(=O)c3c(Nc4ccc(I)cc4F)n(C)c(=O)c(C)c32)c1 [Trametinib] (partner 0.02 µM)
Outline: as §1

For ABC-1, the relative viability (IU1-47 + Decitabine; first compound 0.08 µM) was 1.23, the relative viability (IU1-47 + Decitabine; first compound 0.253 µM) was 1.32 and the relative viability (IU1-47 + Decitabine; first compound 0.8 µM) was 0.922. The relative viability (IU1-47 + Decitabine; first compound 8 µM) was 1.19, the relative viability (IU1-47 + Phenformin; first compound 0.08 µM) was 0.212 and the relative viability (IU1-47 + Phenformin; first compound 0.253 µM) was 0.234. The relative viability (IU1-47 + Phenformin; first compound 0.8 µM) was 0.202 and the relative viability (IU1-47 + Phenformin; first compound 8 µM) was 0.247.
Cell Line NCI-H1299 has a relative viability (FG-4592 + Navitoclax; first compound 0.08 µM) of 1.07, a relative viability (FG-4592 + Navitoclax; first compound 0.253 µM) of 1.03 and a relative viability (FG-4592 + Navitoclax; first compound 0.8 µM) of 1.02. It also gave a relative viability (FG-4592 + Navitoclax; first compound 2.53 µM) of 1.02 and a relative viability (FG-4592 + Navitoclax; first compound 8 µM) of 1.1.
Cell Line EBC-1 has a relative viability (FG-4592 + Navitoclax; first compound 0.08 µM) of 0.469, a relative viability (FG-4592 + Navitoclax; first compound 0.253 µM) of 0.389 and a relative viability (FG-4592 + Navitoclax; first compound 0.8 µM) of 0.425. For the same cell line, the relative viability (FG-4592 + Navitoclax; first compound 2.53 µM) was 0.493 and the relative viability (FG-4592 + Navitoclax; first compound 8 µM) was 0.397.
NCI-H2342 showed a relative viability (IU1-47 + Decitabine; first compound 0.08 µM) of 0.81, a relative viability (IU1-47 + Decitabine; first compound 0.253 µM) of 0.766 and a relative viability (IU1-47 + Decitabine; first compound 0.8 µM) of 0.755. It also gave a relative viability (IU1-47 + Decitabine; first compound 2.53 µM) of 0.688, a relative viability (IU1-47 + Decitabine; first compound 8 µM) of 0.747 and a relative viability (IU1-47 + Phenformin; first compound 0.08 µM) of 0.628. For the same cell line, the relative viability (IU1-47 + Phenformin; first compound 0.253 µM) was 0.558, the relative viability (IU1-47 + Phenformin; first compound 0.8 µM) was 0.694 and the relative viability (IU1-47 + Phenformin; first compound 2.53 µM) was 0.552. The relative viability (IU1-47 + Phenformin; first compound 8 µM) was 0.593, the relative viability (IU1-47 + Trametinib; first compound 0.08 µM) was 0.85 and the relative viability (IU1-47 + Trametinib; first compound 0.253 µM) was 0.882. The relative viability (IU1-47 + Trametinib; first compound 0.8 µM) was 1.05, the relative viability (IU1-47 + Trametinib; first compound 2.53 µM) was 0.973 and the relative viability (IU1-47 + Trametinib; first compound 8 µM) was 0.89.
Work on NCI-H650 yielded a relative viability (IU1-47 + Decitabine; first compound 0.08 µM) of 0.369, a relative viability (IU1-47 + Decitabine; first compound 0.253 µM) of 0.333 and a relative viability (IU1-47 + Decitabine; first compound 0.8 µM) of 0.27. For the same cell line, the relative viability (IU1-47 + Decitabine; first compound 2.53 µM) was 0.334, the relative viability (IU1-47 + Decitabine; first compound 8 µM) was 0.291 and the relative viability (IU1-47 + Phenformin; first compound 0.08 µM) was 0.489. The relative viability (IU1-47 + Phenformin; first compound 0.253 µM) was 0.483, the relative viability (IU1-47 + Phenformin; first compound 0.8 µM) was 0.466 and the relative viability (IU1-47 + Phenformin; first compound 2.53 µM) was 0.491. For the same cell line, the relative viability (IU1-47 + Phenformin; first compound 8 µM) was 0.476, the relative viability (IU1-47 + Trametinib; first compound 0.08 µM) was 0.96 and the relative viability (IU1-47 + Trametinib; first compound 0.253 µM) was 0.958. The relative viability (IU1-47 + Trametinib; first compound 0.8 µM) was 0.863, the relative viability (IU1-47 + Trametinib; first compound 2.53 µM) was 0.91 and the relative viability (IU1-47 + Trametinib; first compound 8 µM) was 1.06.
For A549, the relative viability (IU1-47 + Decitabine; first compound 0.08 µM) was 0.284, the relative viability (IU1-47 + Decitabine; first compound 0.253 µM) was 0.321 and the relative viability (IU1-47 + Decitabine; first compound 0.8 µM) was 0.335. For the same cell line, the relative viability (IU1-47 + Decitabine; first compound 2.53 µM) was 0.253, the relative viability (IU1-47 + Decitabine; first compound 8 µM) was 0.221 and the relative viability (IU1-47 + Phenformin; first compound 0.08 µM) was 0.165. It also gave a relative viability (IU1-47 + Phenformin; first compound 0.253 µM) of 0.105, a relative viability (IU1-47 + Phenformin; first compound 0.8 µM) of 0.144 and a relative viability (IU1-47 + Phenformin; first compound 8 µM) of 0.0832. The relative viability (FG-4592 + Navitoclax; first compound 0.08 µM) was 1.25, the relative viability (FG-4592 + Navitoclax; first compound 0.253 µM) was 1.21 and the relative viability (FG-4592 + Navitoclax; first compound 0.8 µM) was 1.27. For the same cell line, the relative viability (FG-4592 + Navitoclax; first compound 2.53 µM) was 1.28 and the relative viability (FG-4592 + Navitoclax; first compound 8 µM) was 1.08.
Cell Line NCI-H358 has a relative viability (IU1-47 + Decitabine; first compound 0.08 µM) of 0.242, a relative viability (IU1-47 + Decitabine; first compound 0.253 µM) of 0.204 and a relative viability (IU1-47 + Decitabine; first compound 0.8 µM) of 0.2. For the same cell line, the relative viability (IU1-47 + Decitabine; first compound 2.53 µM) was 0.201, the relative viability (IU1-47 + Decitabine; first compound 8 µM) was 0.21 and the relative viability (IU1-47 + Phenformin; first compound 0.08 µM) was 0.328. The relative viability (IU1-47 + Phenformin; first compound 0.253 µM) was 0.323, the relative viability (IU1-47 + Phenformin; first compound 0.8 µM) was 0.339 and the relative viability (IU1-47 + Phenformin; first compound 2.53 µM) was 0.307. The relative viability (IU1-47 + Phenformin; first compound 8 µM) was 0.274, the relative viability (IU1-47 + Trametinib; first compound 0.08 µM) was 0.129 and the relative viability (IU1-47 + Trametinib; first compound 0.253 µM) was 0.13. The relative viability (IU1-47 + Trametinib; first compound 0.8 µM) was 0.128, the relative viability (IU1-47 + Trametinib; first compound 2.53 µM) was 0.135 and the relative viability (IU1-47 + Trametinib; first compound 8 µM) was 0.121.
For NCI-H1563, the relative viability (IU1-47 + Phenformin; first compound 0.08 µM) was 0.657, the relative viability (IU1-47 + Phenformin; first compound 0.253 µM) was 0.691 and the relative viability (IU1-47 + Phenformin; first compound 0.8 µM) was 0.629. It also gave a relative viability (IU1-47 + Phenformin; first compound 2.53 µM) of 0.709 and a relative viability (IU1-47 + Phenformin; first compound 8 µM) of 0.584.
With SW 900 the relative viability (IU1-47 + Decitabine; first compound 0.08 µM) was 0.414, the relative viability (IU1-47 + Decitabine; first compound 0.8 µM) was 0.447 and the relative viability (IU1-47 + Decitabine; first compound 2.53 µM) was 0.452. The relative viability (IU1-47 + Decitabine; first compound 8 µM) was 0.353, the relative viability (IU1-47 + Phenformin; first compound 0.08 µM) was 0.628 and the relative viability (IU1-47 + Phenformin; first compound 0.253 µM) was 0.539. It also gave a relative viability (IU1-47 + Phenformin; first compound 0.8 µM) of 0.444, a relative viability (IU1-47 + Phenformin; first compound 2.53 µM) of 0.532 and a relative viability (IU1-47 + Phenformin; first compound 8 µM) of 0.661. It also gave a relative viability (IU1-47 + Trametinib; first compound 0.08 µM) of 0.876, a relative viability (IU1-47 + Trametinib; first compound 0.8 µM) of 0.783 and a relative viability (IU1-47 + Trametinib; first compound 2.53 µM) of 0.881. The relative viability (IU1-47 + Trametinib; first compound 8 µM) was 0.716.
For IA-LM, the relative viability (FG-4592 + Navitoclax; first compound 0.08 µM) was 0.785, the relative viability (FG-4592 + Navitoclax; first compound 0.253 µM) was 0.707 and the relative viability (FG-4592 + Navitoclax; first compound 0.8 µM) was 0.899. It also gave a relative viability (FG-4592 + Navitoclax; first compound 2.53 µM) of 0.481 and a relative viability (FG-4592 + Navitoclax; first compound 8 µM) of 0.397.
In the case of NCI-H1703, the relative viability (FG-4592 + Navitoclax; first compound 0.08 µM) is reported as 1.01, the relative viability (FG-4592 + Navitoclax; first compound 0.253 µM) is reported as 0.862 and the relative viability (FG-4592 + Navitoclax; first compound 0.8 µM) is reported as 1.16. For the same cell line, the relative viability (FG-4592 + Navitoclax; first compound 2.53 µM) was 1.13 and the relative viability (FG-4592 + Navitoclax; first compound 8 µM) was 1.02.
In the case of LCLC-103H, the relative viability (IU1-47 + Decitabine; first compound 0.08 µM) is reported as 0.793, the relative viability (IU1-47 + Decitabine; first compound 0.253 µM) is reported as 0.731 and the relative viability (IU1-47 + Decitabine; first compound 0.8 µM) is reported as 0.724. The relative viability (IU1-47 + Decitabine; first compound 2.53 µM) was 0.725, the relative viability (IU1-47 + Decitabine; first compound 8 µM) was 0.751 and the relative viability (IU1-47 + Phenformin; first compound 0.08 µM) was 0.334. It also gave a relative viability (IU1-47 + Phenformin; first compound 0.253 µM) of 0.369, a relative viability (IU1-47 + Phenformin; first compound 0.8 µM) of 0.326 and a relative viability (IU1-47 + Phenformin; first compound 2.53 µM) of 0.423. It also gave a relative viability (IU1-47 + Phenformin; first compound 8 µM) of 0.298, a relative viability (IU1-47 + Trametinib; first compound 0.08 µM) of 0.71 and a relative viability (IU1-47 + Trametinib; first compound 0.253 µM) of 0.817. The relative viability (IU1-47 + Trametinib; first compound 0.8 µM) was 0.701, the relative viability (IU1-47 + Trametinib; first compound 2.53 µM) was 0.647 and the relative viability (IU1-47 + Trametinib; first compound 8 µM) was 0.7.
In the case of NCI-H1648, the relative viability (IU1-47 + Decitabine; first compound 0.08 µM) is reported as 0.546, the relative viability (IU1-47 + Decitabine; first compound 0.253 µM) is reported as 0.496 and the relative viability (IU1-47 + Decitabine; first compound 0.8 µM) is reported as 0.664. The relative viability (IU1-47 + Decitabine; first compound 2.53 µM) was 0.387, the relative viability (IU1-47 + Decitabine; first compound 8 µM) was 0.444 and the relative viability (IU1-47 + Trametinib; first compound 0.08 µM) was 0.624. For the same cell line, the relative viability (IU1-47 + Trametinib; first compound 0.253 µM) was 0.535, the relative viability (IU1-47 + Trametinib; first compound 0.8 µM) was 0.463 and the relative viability (IU1-47 + Trametinib; first compound 2.53 µM) was 0.407. The relative viability (IU1-47 + Trametinib; first compound 8 µM) was 0.391.
